Assay results as given in patent US20210077501A1, “COMPOSITIONS FOR PREVENTING OR TREATING UVEITIS” (Chong Kun Dang Pharmaceutical Corp., priority 2018, published 2021).

How the values were obtained:
[1] = test system: CTLA4 (cytotoxic T-lymphocyte-associated protein 4) in the regulatory T cells; assay: CTLA4 expression in regulatory T cells (iTreg) by flow cytometry; format: cell-based, mouse; conditions: for level of CTLA4 expression in the T cells (function of regulatory T cells): iTreg, six days treatment, concentration not specified
Protocol: To identify if the compounds according to the present invention regulate a function of regulatory T cells in immune responses, compounds 255, 280, 374, 416 and 476 were treated, and then an expression level of an immune checkpoint receptor CTLA4 (cytotoxic T-lymphocyte-associated protein 4) in the regulatory T cells was measured by means of flow cytometry.
Specifically, a six-week old C57BL6 male mice were supplied from Central Lab Animal Inc., then acclimated for one week, and then used in an experiment. A spleen was isolated from the mouse, and then treated with collagenase D (Roche, 11088866001), such that splenocytes were isolated therefrom. CD4+CD25-T cells were isolated by means of a CD4+CD25+ regulatory T cell isolation kit (Miltenyi Biotec, 130-091-041), and then CD4+CD25-T cells (at a ratio of 5×10^5 cells/well) were treated with an anti-CD3E/anti-CD28 mAb bead (T cell activation/expansion kit, Miltenyi Biotec, 130-093627) and a mouse recombinant TGF-β2 for six days, such that they were differentiated into iTreg. A test drug was simultaneously treated for six days, during which the cells were differentiated into iTreg. After that, the cells were incubated by means of anti-CD4/anti-CD25 mAb (eBioscience, 25-0042-82, 17-0251-82) at 4° C. for 20 minutes, and then labeling was performed. For intracytoplasmic staining, permeabilization was performed by means of Fix/permeabilization buffer (eBioscience, 00-5523-00), then labeling was performed by means of anti-FOXP3-Alexafluor488 (eBioscience, 53-5773-82) and anti-CTLA4-PE (eBioscience, 12-1522-82), and then flow cytometry was performed by means of FACS LSR Fortessa (BD bioscience).

reactive T cells = assay: Treg suppression assay: proliferation of reactive T cells (eFluor670 dilution, flow cytometry); format: cell-based, mouse; conditions: Teff:Treg 2:1, three days; concentration not specified
Protocol: To identify the efficacy of the inventive compounds on suppressing the proliferation of reactive T cells in immune responses, compounds 255, 280, 374, 416 and 476 according to the present invention were cultured together with reactive T cells and regulatory T cells […], and then the suppressive efficacy of regulatory T cells was measured.
Specifically, a six-week old C57BL6 male mice were supplied from Central Lab Animal Inc., then acclimated for one week, and then used in an experiment. A spleen was isolated from the mouse, and then treated with collagenase D (Roche, 11088866001), such that splenocytes were isolated therefrom. […] were isolated by means of a CD4+CD25+ regulatory T cell isolation kit (Miltenyi Biotec, 130-091-041) according to a protocol provided by a manufacturer. Teff cells were cultured at 37° C. for ten minutes by means of eFluor®670 (Cell proliferation Dye eFluor®670, eBioscience), such that cell membranes were stained. Teff and Treg were divided into a 96 well plate at a ratio of 2:1, and then T cells were activated for three days by means of an anti-CD3E and anti-CD28 mAb magnetic bead (T cell activation/expansion kit, Miltenyi Biotec, 130-093627), such that Treg suppression assay was performed. A test drug was simultaneously treated for three days, during which the assay was performed. The divided amount of eFluor®670 labeled on the Teff cell membranes was measured, such that a degree of proliferation of T cells was evaluated accordingly. An eFluor®670-dilution plot was measured by means of a flow cytometer (FACS LSR Fortessa, BD bioscience). The suppressive ability on T cells proliferation was calculated by means of a following equation.

[2] = test system: experimental autoimmune uveitis (EAU) mouse; assay: ELISA of IFN-γ and IL-17A from spleen mononuclear cells of the EAU mouse; format: in vivo
[3] = test system: experimental autoimmune uveitis (EAU) mouse; assay: FACS of immune cells in retina and draining lymph node of the EAU mouse; format: in vivo
[4] = test system: experimental autoimmune uveitis (EAU) mouse; assay: Immunofluorescent staining of immunomarkers in the retina of the EAU mouse; format: in vivo
[5] = test system: experimental autoimmune uveitis (EAU) mouse; assay: Clinical grading of uveitis in the EAU mouse (fundoscopy); format: in vivo
[6] = test system: experimental autoimmune uveitis (EAU) mouse; assay: H&E staining of histopathological lesions in the retina of the EAU mouse; format: in vivo; conditions: 0.3% eye drop twice a day, Day 21
[7] = test system: TNFα secretion in LPS-stimulated human monocyte cell lines (THP-1); assay: Suppression of TNFα secretion in LPS-stimulated THP-1 cells (ELISA); format: cell-based
Protocol: To identify the efficacy of the inventive compounds on suppressing a TNFα secretion in immune responses, suppression of TNFα production, which was achieved by a treatment with compounds 374, 461, 500, 530 and 532 according to the present invention in LPS-stimulated human monocyte cell lines (THP-1), was quantified by means of an enzyme immuno-assay (ELISA).
Specifically, the THP-1 cell lines (ATCC) were cultured in an RPMI-1640 medium comprising 10% FBS. The cell lines were divided into a 24 well plate at a ratio of 1×10^5 cells per well, then treated with 100 ng/mL PMA (phorbol 12-myristate 13-acetate) for 24 hours, and then differentiated into macrophage. Then, the culture medium was replaced with a new one, then treated with a test drug for 24 hours, and then treated again with 10 ng/mL LPS (E.Coli, O55:B5) for four hours for stimulation. After that, supernatant was taken and used to measure the amount of TNFα secreted from the cells by means of a Human TNFα Instant ELISA kit (eBioscience, BMS223INST) according to a protocol provided by a manufacturer.

[8] = test system: experimental autoimmune uveitis (EAU) mouse; assay: Real-time PCR of HDAC6 and inflammatory cytokines in the retina of the EAU mouse; format: in vivo; conditions: for expression level of HDAC6 / expression level of IL-1β / expression level of IL-17 / expression level of INF-γ / expression level of TNF-α: retina
[9] = spleen MNC stimulated with IRBP peptide 72 hours, eye drop administration group
[10] = lymph node tissues, eye drop administration group
[11] = lymph nodes, i.p. administration group
[12] = retina tissues, eye drop administration group
[13] = EAU mouse, eye drop administration group
[14] = THP-1, LPS, at both 100 nM and 300 nM
[15] = in comparison with LPS-induced control group, THP-1, concentration not specified
[16] = i.p. administration group (10 or 30 mg/kg once a day)
[17] = THP-1, LPS, on increasing concentration of compound treatment from 100 nM to 300 nM

CN1CCN(C(=O)N(Cc2ccc(C(=O)NO)cc2)c2ccc(F)cc2F)CC1 [Compound 416, N-(2,4-difluorophenyl)-N-(4-(hydroxycarbamoyl)benzyl)-4-methylpiperazine-1-carboxamide]
level of CTLA4 expression in the T cells (function of regulatory T cells) [1]: excellent effect | proliferation of the reactive T cells (reactive T cells): excellent effect

O=C(NO)c1ccc(CN(C(=O)N2CCOCC2)c2cccc(Br)c2)cc1 [Compound 255, N-(3-bromophenyl)-N-(4-(hydroxycarbamoyl)benzyl)morpholine-4-carboxamide]
level of CTLA4 expression in the T cells (function of regulatory T cells) [1]: excellent effect | cytotoxicity ([1]; treated at 1000 nM, data analysis not performed): severe cytotoxicity | proliferation of the reactive T cells (reactive T cells): excellent effect

O=C(NO)c1ccc(CN(C(=O)N2CC(F)(F)C2)c2cccc(C(F)(F)F)c2)cc1 [Compound 476, 3,3-difluoro-N-(4-(hydroxycarbamoyl)benzyl)-N-(3-(trifluoromethyl)phenyl)azetidine-1-carboxamide]
level of CTLA4 expression in the T cells (function of regulatory T cells) [1]: excellent effect | proliferation of the reactive T cells (reactive T cells): excellent effect

O=C(NO)c1ccc(CN(C(=O)N2CCOCC2)c2cccc(C(F)(F)F)c2)cc1 [Compound 374, N-(4-(hydroxycarbamoyl)benzyl)-N-(3-(trifluoromethyl)phenyl)morpholine-4-carboxamide]
inhibiting an expression of inflammatory cytokines in a spleen ([2]; animal model for an induced uveitis disease, summary (FIG. 11)): excellent effect | level of IL-17A [2, 9]: significantly decreased | level of INF-γ [2, 9]: significantly decreased | decreasing the number of immune cells in a retina and a lymph node ([3]; animal model for an induced uveitis disease, summary (FIGS. 13 to 21)): excellent effect | number of IL-IP(+) cells [3, 10]: significantly decreased | number of INF-γ(+)/CD4(+) cells [3, 10]: significantly decreased | number of INF-γ(+)/CD4(+) cells ([3]; lymph node tissues, i.p. administration group): significantly decreased | number of CD11b(+) cells [3, 11]: decreased | number of CD19(+) cells [3, 11]: decreased | number of F4/80(+) cells [3, 11]: decreased | number of IL-IP(+) cells [3, 12]: significantly decreased | number of INF-γ(+)/CD4(+) cells [3, 12]: significantly decreased | number of INF-γ(+)/CD4(+) cells ([3]; retina tissues, i.p. administration group, 10 mg/kg): significantly decreased | number of INF-γ(+)/CD4(+) cells ([3]; retina tissues, i.p. administration group, 30 mg/kg): significantly decreased | B220 (B cell marker) in retina [4, 13]: did not show an obvious change | CD3(+) cell (T cell marker) in retina [4, 13]: significantly decreased to a similar level to that of a normal mouse | infiltration of CD4(+) immune cells into a retina tissue [4, 13]: clearly decreased and remained only under the retina | inhibiting an infiltration of inflammatory cells ([4]; animal model for an induced uveitis disease, summary (FIGS. 7 to 10)): excellent effect | clinical grade of uveitis ([5]; EAU mouse, 0.3% eye drop twice a day from Day 11, Day 21, scale Grade 0-4): ≤ 0.5 Grade | decreasing a uveitis lesion ([5]; animal model for an induced uveitis disease, summary (FIGS. 4 to 6)): excellent effect | inflammatory lesions in retina tissues (H&E) [6]: significantly decreased | level of TNFα secretion [7, 14]: remarkably decreased down to a level at which no inflammatory response was induced by means of the LPS | level of TNFα secretion [7, 15]: excellent effect | level of CTLA4 expression in the T cells (function of regulatory T cells) [1]: excellent effect | proliferation of the reactive T cells (reactive T cells): excellent effect | inhibiting an expression of inflammatory cytokines in inflammation regions ([8]; animal model for an induced uveitis disease, summary (FIG. 12)): excellent effect | expression level of HDAC6 ([8]; eye drop administration group): significantly decreased and recovered to the level of the normal mouse | expression level of IL-1β ([8]; eye drop administration group): significantly decreased and recovered to the level of the normal mouse | expression level of IL-17 ([8]; eye drop administration group): significantly decreased and recovered to the level of the normal mouse | expression level of INF-γ ([8]; eye drop administration group): significantly decreased and recovered to the level of the normal mouse | expression level of TNF-α ([8]; eye drop administration group): significantly decreased and recovered to the level of the normal mouse | expression level of HDAC6 [8, 16]: significantly decreased and recovered to the level of the normal mouse | expression level of IL-1β [8, 16]: significantly decreased and recovered to the level of the normal mouse | expression level of IL-17 [8, 16]: significantly decreased and recovered to the level of the normal mouse | expression level of INF-γ [8, 16]: significantly decreased and recovered to the level of the normal mouse | expression level of TNF-α [8, 16]: significantly decreased and recovered to the level of the normal mouse

CCN1CCN(C(=O)N(Cc2ccc(C(=O)NO)cc2)c2cccc(C(F)(F)F)c2)CC1 [Compound 461, 4-ethyl-N-(4-(hydroxycarbamoyl)benzyl)-N-(3-(trifluoromethyl)phenyl)piperazine-1-carboxamide]
level of TNFα secretion [7, 14]: remarkably decreased down to a level at which no inflammatory response was induced by means of the LPS | level of TNFα secretion [7, 15]: excellent effect

O=C(NO)c1ccc(CN(C(=O)N2CCOCC2)c2cccc(CF)c2)cc1 [Compound 500, N-(3-(fluoromethyl)phenyl)-N-(4-(hydroxycarbamoyl)benzyl)morpholine-4-carboxamide]
level of TNFα secretion [7, 14]: remarkably decreased down to a level at which no inflammatory response was induced by means of the LPS | level of TNFα secretion [7, 15]: excellent effect

O=C(NO)c1ccc(CN(C(=O)N2CCOCC2)c2cccc(F)c2)cc1 [Compound 530, N-(3-fluorophenyl)-N-(4-(hydroxycarbamoyl)benzyl)morpholine-4-carboxamide]
level of TNFα secretion [7, 17]: drastically decreased | level of TNFα secretion [7, 15]: excellent effect

O=C(NO)c1ccc(CN(C(=O)N2CCOCC2)c2cccc(C(F)(F)F)c2)c(F)c1 [Compound 532, N-(2-fluoro-4-(hydroxycarbamoyl)benzyl)-N-(3-(trifluoromethyl)phenyl)morpholine-4-carboxamide]
level of TNFα secretion [7, 17]: drastically decreased | level of TNFα secretion [7, 15]: excellent effect

O=C(NO)c1ccc(CN(C(=O)N2CCOCC2)c2ccccn2)cc1 [Compound 280, N-(4-(hydroxycarbamoyl)benzyl)-N-(pyridine-2-yl)morpholine-4-carboxamide]
level of CTLA4 expression in the T cells (function of regulatory T cells) [1]: excellent effect | proliferation of the reactive T cells (reactive T cells): excellent effect
